US20200164047A1, “THERAPY AND DIAGNOSIS OF DISEASE CHARACTERIZED BY ALTERATIONS IN THE DNA DAMAGE RESPONSE” (UNIVERSITÀ DEGLI STUDI DI MILANO, priority 2017, published 2020)

Key:
PP2A-GSK3β-MCL-1 axis = assay: Immunoblotting of phosphorylated GSK3β, MCL-1 and CIP2A; assay type: cell-based; conditions: HCT116 and HeLa
Procedure: FIG. 16. […] (A, B) Immunoblotting analysis of lysates derived from HCT116 and HeLa cells cultured for 24 hours in either nutrient-rich DMEM (containing 10% FBS and 10 mM glucose), DMEM containing 2.5 mM glucose (glucose deprivation), DMEM with 0.1% serum (serum deprivation) or DMEM with no glutamine, no methionine and no cysteine (amino acids deprivation). Media were replenished every 6 hours.
(§1) FIG. 31. […] (B) Immunoblotting analysis of total cell lysates used for immunoprecipitation in (A).
Whole cell lysates were prepared by directly lysing cells growing in culturing dishes or collected cell pellets in lysis buffer (40 mM Hepes pH 7.5, 120 mM NaCl, 1 mM EDTA, 10 mM pyrophosphate, 10 mM glycerophosphate, 50 mM NaF, 0.5 mM orthovanadate, and EDTA-free protease inhibitors (Roche) containing 0.3% CHAPS). Lysates were prepared from frozen tumors using GentleMACS dissociator. Lysates were cleared by centrifugation at 13000 g for 15 min. at 4° C., quantified using BioRad DC protein assay reagent followed by mixing 1:1 with 4% SDS, 100 mM Tris.Cl pH 6.8, 20% glycerol, 0.1% bromophenol blue and 5% β-mercaptoethanol added immediately before use and heating at 94° C. for 7 min. Equal amounts of proteins were then electrophoresed on 8-15% SDS-PAGE gels. Gels were run at 100 V (stacking gel)/150 V (separation gel) on Protean III apparatus (BioRad). Gels were transferred onto nitrocellulose and probed with the appropriate primary antibody for a variable incubation time depending on the experimental design, followed by the corresponding secondary antibodies diluted 1:5000-10000. The proteins were visualized by enhanced chemiluminescence (ECL) using ChemiDoc apparatus (BioRad) according to the manufacturer's instructions.

HCT116 and HeLa cells = conditions: low glucose conditions plus metformin, 24 h
Procedure: FIG. 14. […] (A) Images of HCT116 and HeLa cells cultured for 24 hours in either nutrient-rich DMEM (containing 10% FBS and 10 mM glucose), DMEM containing 2.5 mM glucose (glucose deprivation), DMEM with 0.1% serum (serum deprivation) or DMEM with no glutamine, no methionine and no cysteine (amino acids deprivation). Media were replenished every 6 hours. (B) Quantification of cell death of HCT116 and HeLa cells cultured as in A as measured by propidium iodide uptake using flow cytometry. […] Media were replenished every 6 hours.
as §1
Cells were harvested by trypsinization, washed in PBS (pH 7.2), and then stained with propidium iodide (10 mg/ml) added immediately prior to analysis. Cell fluorescence was then measured on a flow cytometer (FACSCalibur; Becton Dickinson, CA) and analyzed using CellQuest software.

[1] = system: Bx-PC3 pancreatic cancer cells; assay type: cell-based; conditions: metformin in combination with low glucose, 24, 48 and 72 hrs

CN(C)C(=N)NC(=N)N.Cl [metformin]
GSK3β phosphorylation (PP2A-GSK3β-MCL-1 axis; low glucose-metformin combination): almost completely abolished GSK3β phosphorylation | MCL-1 protein levels (PP2A-GSK3β-MCL-1 axis; metformin in low glucose): marked reduction in MCL-1 protein levels | level of CIP2A (PP2A-GSK3β-MCL-1 axis; metformin treatment): reduction in the level of CIP2A | cell death (HCT116 and HeLa cells): marked cell death | sensitization by RAD51 knockdown [1]: dramatically sensitizes
